What was measured:
[1] = system: anti-HCV antibodies binding onto peptide S42G; assay: Inhibition test: inhibition of binding of anti-HCV antibodies onto peptide S42G by preincubation with peptides; set-up: species or system human; settings: inhibitor 0.1 mg/ml
Protocol: To evaluate this hypothesis, inhibition tests, whose usefulness lies in the fact that they allow the formation of the antigen-antibody complex in liquid medium, were carried out, thus dispensing with possible artifacts linked to the adsorption of peptides onto a solid support.
The inhibition experiments were carried out by reaction, in liquid phase, of the HCV sera with the peptides followed by reaction of the remaining antibodies with the peptide adsorbed onto the microplates. The inhibitory peptides are incubated at a concentration of 0.1 mg/ml with sera of appropriate dilution. The rest of the manipulation is identical to that described for the ELISA test.
Peptide S18D (SEQ ID NO:11), or V22G (SEQ ID NO:12), or a mixture of both, is preincubated overnight in the presence of the serum to be tested. The antibodies can bind onto the corresponding sites.

[2] = system: anti-HCV antibodies (HCV-positive sera); assay: ELISA detection of anti-HCV antibodies in HCV-positive sera with adsorbed peptides; assay type: binding, human
Protocol: The reactivity of these three peptides towards the sera of individuals infected with the hepatitis C virus, termed (HCV) positive, was evaluated in an ELISA test according to the procedure described below.
Detection of anti-HCV Antibodies by ELISA
The wells of a microtiter plate of "NUNC MAXISORB™" trademark are saturated with 100 μl of a solution containing the peptide or a mixture of peptides (10 μg/ml) for 2 hours at 37° C. The plate is then emptied, then washed with a wash buffer containing 0.05% TWEEN™ 20(polysorbate 20). The wells are saturated with 100 μl of wash buffer supplemented with 10% goat serum (v/v), then incubated for 30 minutes at 37° C., then washed again as above. The sera to be analyzed are diluted to the appropriate dilution with saturation buffer. The incubation of the sera is 1 hour at 37° C. The wells are again washed. The solution of conjugate (goat IgG to human IgG labelled with peroxidase) at a dilution of 1/1000 in the saturation buffer is then added and the incubation lasts for 90 minutes at 37° C. After washing, the solution of orthophenylenediamine substrate is added. After 10 minutes, the reaction is stopped with 50 μl of H2 SO4 and the optical density is read at 492 nm. It should be noted that all the tests were carried out in duplicate.
For that, the different peptides are adsorbed on the microplates at a concentration of 10 μg/ml and the sera are used at 1/100 dilution.
The values obtained, which are collated in Table 1 below, correspond to the optical density (OD) multiplied by 10^3, at 492 nm.
For each serum the experiment was carried out in duplicate. The **** are values outside the upper scale.
The different peptides are absorbed onto microplates at a concentration of 10 μg/ml and the sera are used at the dilution stated.
The values obtained, which are collated in Table 2 below, correspond to the optical density at 492 nm. All the experiments were carried out in duplicate.
Each serum was, in a first instance, tested at the dilution 1/100.
The values given correspond to the optical density read at 492 nm multiplied by the factor 10^3.

Substance: S18D: a peptide of 20 amino acids covering sequence 2 to 21 of the CORE protein (STNPKPQRKTKRNTNRRPQD)
- inhibition ([1]; serum B4, 1/10,000): 16.8%
- inhibition ([1]; serum P5, 1/10,000): 3.5%
- inhibition ([1]; serum P7, 1/10,000): 8.4%
- inhibition ([1]; serum P8, 1/10,000): 1.4%
- inhibition ([1]; serum P18, 1/10,000): 10.6%
- inhibition ([1]; serum P22, 1/10,000): 6.6%
- inhibition ([1]; serum P25, 1/10,000): 14.1%
- inhibition ([1]; serum P31, 1/10,000): 2.0%
- inhibition ([1]; serum P37, 1/10,000): 43.6%
- inhibition ([1]; serum P38, 1/10,000): 8.9%
- optical density at 492 nm ([2]; Table 2, line 68, serum not named (below CTS), 1/100): 2.500 OD
- optical density at 492 nm ([2]; Table 2, line 69, serum not named (below CTS), 1/1000): 2.500 OD
- optical density at 492 nm ([2]; Table 2, line 70, serum not named (below CTS), 1/10000): 0.347 OD
- optical density at 492 nm ([2]; Table 2, line 75, serum B4, 1/1000): 1.250 OD
- optical density at 492 nm ([2]; Table 2, line 76, serum B4, 1/1000 (so in the source)): 0.171 OD
- optical density at 492 nm ([2]; Table 2, serum B1, 1/100): 1.859 OD
- optical density at 492 nm ([2]; Table 2, serum B2, 1/100): 1.781 OD
- optical density at 492 nm ([2]; Table 2, serum B3, 1/100): 1.244 OD
- optical density at 492 nm ([2]; Table 2, serum B4, 1/100): 2.500 OD
- optical density at 492 nm ([2]; Table 2, serum B5, 1/100): 2.032 OD
- optical density at 492 nm ([2]; Table 2, serum B6, 1/100): 2.500 OD
- optical density at 492 nm ([2]; Table 2, serum B7, 1/100): 2.500 OD
- optical density at 492 nm ([2]; Table 2, serum B8, 1/100): 1.362 OD
- optical density at 492 nm ([2]; Table 2, serum B9, 1/100): 0.808 OD
- optical density at 492 nm ([2]; Table 2, serum B10, 1/100): 0.099 OD
- optical density at 492 nm ([2]; Table 2, serum B11, 1/100): 2.324 OD
- optical density at 492 nm ([2]; Table 2, serum B12, 1/100): 1.375 OD
- optical density at 492 nm ([2]; Table 2, serum B13, 1/100): 0.370 OD
- optical density at 492 nm ([2]; Table 2, serum B14, 1/100): 0.072 OD
- optical density at 492 nm ([2]; Table 2, serum B15, 1/100): 0.090 OD
- optical density at 492 nm ([2]; Table 2, serum B16, 1/100): 2.500 OD
- optical density at 492 nm ([2]; Table 2, serum CTS, 1/100): 2.500 OD
- optical density at 492 nm ([2]; Table 2, serum CTS, 1/1000): 2.500 OD
- optical density at 492 nm ([2]; Table 2, serum CTS, 1/10000): 0.295 OD
- optical density at 492 nm ([2]; Table 2, serum P1, 1/100): 0.012 OD
- optical density at 492 nm ([2]; Table 2, serum P2, 1/100): 0.020 OD
- optical density at 492 nm ([2]; Table 2, serum P3, 1/100): 0.162 OD
- optical density at 492 nm ([2]; Table 2, serum P4, 1/100): 0.982 OD
- optical density at 492 nm ([2]; Table 2, serum P5, 1/100): 2.500 OD
- optical density at 492 nm ([2]; Table 2, serum P5, 1/1000): 2.317 OD
- optical density at 492 nm ([2]; Table 2, serum P5, 1/10000): 0.399 OD
- optical density at 492 nm ([2]; Table 2, serum P6, 1/100): 0.007 OD
- optical density at 492 nm ([2]; Table 2, serum P7, 1/100): 2.500 OD
- optical density at 492 nm ([2]; Table 2, serum P7, 1/1000): 0.854 OD
- optical density at 492 nm ([2]; Table 2, serum P7, 1/10000): 0.165 OD
- optical density at 492 nm ([2]; Table 2, serum P8, 1/100): 2.500 OD
- optical density at 492 nm ([2]; Table 2, serum P8, 1/1000): 2.500 OD
- optical density at 492 nm ([2]; Table 2, serum P8, 1/10000): 0.681 OD
- optical density at 492 nm ([2]; Table 2, serum P9, 1/100): 0.019 OD
- optical density at 492 nm ([2]; Table 2, serum P10, 1/100): 0.028 OD
- optical density at 492 nm ([2]; Table 2, serum P11, 1/100): 0.383 OD
- optical density at 492 nm ([2]; Table 2, serum P12, 1/100): 2.500 OD
- optical density at 492 nm ([2]; Table 2, serum P12, 1/1000): 2.500 OD
- optical density at 492 nm ([2]; Table 2, serum P12, 1/10000): 0.454 OD
- optical density at 492 nm ([2]; Table 2, serum P13, 1/100): 0.012 OD
- optical density at 492 nm ([2]; Table 2, serum P14, 1/100): 0.907 OD
- optical density at 492 nm ([2]; Table 2, serum P15, 1/100): 2.500 OD
- optical density at 492 nm ([2]; Table 2, serum P16, 1/100): 0.225 OD
- optical density at 492 nm ([2]; Table 2, serum P17, 1/100): 0.297 OD
- optical density at 492 nm ([2]; Table 2, serum P18, 1/100): 2.500 OD
- optical density at 492 nm ([2]; Table 2, serum P18, 1/1000): 0.297 OD
- optical density at 492 nm ([2]; Table 2, serum P18, 1/10000): 0.095 OD
- optical density at 492 nm ([2]; Table 2, serum P19, 1/100): 0.011 OD
- optical density at 492 nm ([2]; Table 2, serum P20, 1/100): 1.433 OD
- optical density at 492 nm ([2]; Table 2, serum P21, 1/100): 0.111 OD
- optical density at 492 nm ([2]; Table 2, serum P22, 1/100): 2.500 OD
- optical density at 492 nm ([2]; Table 2, serum P22, 1/1000): 1.142 OD
- optical density at 492 nm ([2]; Table 2, serum P22, 1/10000): 0.146 OD
- optical density at 492 nm ([2]; Table 2, serum P23, 1/100): 0.015 OD
- optical density at 492 nm ([2]; Table 2, serum P24, 1/100): 0.015 OD
- optical density at 492 nm ([2]; Table 2, serum P25, 1/100): 2.500 OD
- optical density at 492 nm ([2]; Table 2, serum P25, 1/1000): 2.199 OD
- optical density at 492 nm ([2]; Table 2, serum P25, 1/10000): 0.329 OD
- optical density at 492 nm ([2]; Table 2, serum P26, 1/100): 2.500 OD
- optical density at 492 nm ([2]; Table 2, serum P26, 1/1000): 2.500 OD
- optical density at 492 nm ([2]; Table 2, serum P26, 1/10000): 0.957 OD
- optical density at 492 nm ([2]; Table 2, serum P27, 1/100): 1.425 OD
- optical density at 492 nm ([2]; Table 2, serum P28, 1/100): 0.115 OD
- optical density at 492 nm ([2]; Table 2, serum P29, 1/100): 0.000 OD
- optical density at 492 nm ([2]; Table 2, serum P30, 1/100): 0.483 OD
- optical density at 492 nm ([2]; Table 2, serum P31, 1/100): 2.500 OD
- optical density at 492 nm ([2]; Table 2, serum P31, 1/1000): 1.975 OD
- optical density at 492 nm ([2]; Table 2, serum P31, 1/10000): 0.183 OD
- optical density at 492 nm ([2]; Table 2, serum P32, 1/100): 1.046 OD
- optical density at 492 nm ([2]; Table 2, serum P33, 1/100): 1.307 OD
- optical density at 492 nm ([2]; Table 2, serum P34, 1/100): 2.500 OD
- optical density at 492 nm ([2]; Table 2, serum P35, 1/100): 2.500 OD
- optical density at 492 nm ([2]; Table 2, serum P36, 1/100): 0.115 OD
- optical density at 492 nm ([2]; Table 2, serum P37, 1/100): 2.500 OD
- optical density at 492 nm ([2]; Table 2, serum P37, 1/1000): 0.523 OD
- optical density at 492 nm ([2]; Table 2, serum P37, 1/10000): 0.102 OD
- optical density at 492 nm ([2]; Table 2, serum P38, 1/100): 2.500 OD
- optical density at 492 nm ([2]; Table 2, serum P38, 1/1000): 0.753 OD
- optical density at 492 nm ([2]; Table 2, serum P38, 1/10000): 0.099 OD
- optical density at 492 nm ([2]; Table 2, serum P39, 1/100): 2.500 OD
- optical density at 492 nm ([2]; Table 2, serum P40, 1/100): 2.500 OD
- optical density at 492 nm ([2]; Table 2, serum P41, 1/100): 1.579 OD
- optical density at 492 nm ([2]; Table 2, serum P42, 1/100): 0.000 OD
- reactivity towards HCV-positive sera ([2]; in words): react

— patent US6235284A, “Synthetic polypeptides belonging to the hepatitis C virus (HCV) and which can be used especially for detecting the latter” (Bio Merieux, priority 1992, dated 2001)
